# Active and inactive are the calls of the source. The calls are words filed in the database; no cut-off is given here.
# Tests used:
# A549 [1] = assay: Antiproliferative activity against human A549 cells measured after 72 hrs by SRB assay; type: functional, cell-based
# [2] = Resistant index, ratio IC50 for K562/Adr cells over IC50 for K562 cells; type: functional
# [3] = Resistant index, ratio IC50 for KB/VCR cells over IC50 for KB cells; type: functional
# KB = assay: Antiproliferative activity against human KB cells measured after 72 hrs by SRB assay; type: functional, cell-based
# [4] = Resistant index, ratio IC50 for KB-V1 cells over IC50 for KB cells; type: functional
# 4T1 [5] = assay: Antitumor activity against mouse 4T1 cells xenografted in female BALB/c mouse assessed as T/C at 25 mg/kg, ip administered every other day for 14 days; type: functional; conditions: time 14 day
# A549 [6] = assay: Induction of cell cycle arrest in human A549 cells assessed as accumulation at G2/M phase at 200 nM measured propidium iodide based flow cytometry analysis; type: functional
# Tubulin (Homo sapiens) [7] = biological target: T1, Tubulin (Homo sapiens) (UniProt P68371+Q9H4B7+P0DPH7+P68366+Q13509+Q71U36+P04350+Q3ZCM7+P07437+P68363+Q9BQE3+Q6PEY2+Q13885+Q9BVA1+Q9BUF5); assay: Inhibition of tubulin polymerization in human A549 cells assessed as disruption of microtubule network at 200 nM measured by DAPI staining method; type: cell-based
# K562 = assay: Antiproliferative activity against human K562 cells measured after 72 hrs by SRB assay; type: functional, cell-based; conditions: K562, 72 h
# [8] = Antiproliferative activity against human KB/VCR cells measured after 72 hrs by SRB assay; type: functional, cell-based
# Tubulin (Homo sapiens) [9] = biological target: T1, Tubulin (Homo sapiens); assay: Inhibition of tubulin (unknown origin) polymerization incubated for 15 mins at 30 uM relative to control; type: protein-complex assay
# KB-V1 = assay: Antiproliferative activity against human KB-V1 cells measured after 72 hrs by SRB assay; type: functional, cell-based; conditions: KB-V1, 72 h
# K562/Adr = assay: Antiproliferative activity against human K562/Adr cells measured after 72 hrs by SRB assay; type: functional, cell-based
# [10] = Metabolic stability in human liver microsomes assessed as intrinsic clearance at 1 uM in presence of NADPH measured by LC-MS/MS analysis; type: ADME, Microsome
# Tubulin (Homo sapiens) [11] = biological target: T1, Tubulin (Homo sapiens); assay: Inhibition of tubulin polymerization in human A549 cells assessed as disruption of microtubule network at 50 nM measured by DAPI staining method; type: cell-based
# KB/VCR = assay: Antiproliferative activity against human KB/VCR cells at 0.3 to 30 nM measured in presence of 10 uM verapamil after 72 hrs by SRB assay; type: functional, cell-based; conditions: dose 0.3-30 nM
# A549 [12] = assay: Induction of cell cycle arrest in human A549 cells assessed as accumulation at G2/M phase at 400 nM measured after 24 hrs by propidium iodide based flow cytometry analysis; type: functional
# Tubulin (Homo sapiens) [13] = biological target: T1, Tubulin (Homo sapiens); assay: Inhibition of tubulin polymerization in human A549 cells at 3 to 100 uM; type: cell-based; conditions: dose 3-100 µM
# A549 [14] = assay: Induction of cell morphological changes in human A549 cells at 400 nM measured after 24 hrs; type: functional, cell-based
# Tubulin (Homo sapiens) [15] = biological target: T1, Tubulin (Homo sapiens); assay: Inhibition of tubulin polymerization in human A549 cells assessed as disruption of microtubule network at 200 nM measured after 24 hrs by DAPI staining method; type: cell-based
# 4T1 [16] = assay: Antitumor activity against mouse 4T1 cells xenografted in female BALB/c mouse assessed as T/C at 10 mg/kg, ip administered every other day for 14 days; type: functional; conditions: time 14 day
compound,measurement,setting,value
O=C(c1ccccc1)c1ccc(-c2cccc(Cl)c2)cc1,IC50,"A549 [1]; Homo sapiens, A549, 72 h",1870 nM
COc1cc(C#N)cc(-c2ccc(C(=O)c3ccccc3)cc2F)c1,IC50,"A549 [1]; Homo sapiens, A549, 72 h",3890 nM
COc1cc(C#N)cc(-c2ccc(S(=O)(=O)c3ccccc3)cc2)c1,IC50,"A549 [1]; Homo sapiens, A549, 72 h",> 10000 nM
COc1cc(C#N)cc(-c2ccc(C(=O)c3ccccc3O)cc2)c1,IC50,"A549 [1]; Homo sapiens, A549, 72 h",135 nM
COc1cc(OC)c(OC)c(-c2ccc(C(=O)c3ccccc3)cc2)c1,IC50,"A549 [1]; Homo sapiens, A549, 72 h",> 10000 nM
COc1cc(C#N)cc(-c2ccc(C(=O)c3ccccc3)cc2)c1,Ratio IC50,[2],1.6
same,Ratio IC50,[3],0.8
same,IC50,KB,37.2 nM
same,Ratio IC50,[4],1
same,T/C,4T1 [5],47.2%
same,Activity,A549 [6],90%
same,IC50,"A549 [1]; Homo sapiens, A549, 72 h",62 nM
same,inhibition,Tubulin (Homo sapiens) [7],Active
same,IC50,K562,144 nM
same,IC50,[8],30.4 nM
same,inhibition,Tubulin (Homo sapiens) [9],36.1%
same,IC50,KB-V1,36.1 nM
same,IC50,K562/Adr,226 nM
COc1cc(C#N)cc(-c2ccc(C(=O)c3ccccc3N)cc2)c1,IC50,"A549 [1]; Homo sapiens, A549, 72 h",1390 nM
N#Cc1ccc(-c2ccc(C(F)(F)F)cc2)cc1,IC50,"A549 [1]; Homo sapiens, A549, 72 h",5900 nM
COc1cc(OC)cc(-c2ccc(C(=O)c3ccccc3)c(N)c2)c1,IC50,"A549 [1]; Homo sapiens, A549, 72 h",49 nM
COc1cc(C#N)cc(-c2ccc(C(=O)c3ccccc3)c(N)c2)c1 [listing 1 of 2 here],IC50,A549 [1]; a549,6 nM
COc1cccc(C(=O)c2ccc(-c3cc(C#N)cc(OC)c3)cc2)c1,IC50,"A549 [1]; Homo sapiens, A549, 72 h",54 nM
COc1cc2c(c(OC)c1OC)-c1ccc(OC)c(=O)cc1[C@@H](NC(C)=O)CC2 [COLCHICINE],Ratio IC50,[2],64.4
same,Ratio IC50,[3],16.1
same,IC50,KB,18.2 nM
same,Ratio IC50,[4],73.5
same,IC50,K562,102 nM
same,IC50,[8],294 nM
same,CLH,[10],0.384 mL/min/g
same,IC50,KB-V1,1340 nM
same,IC50,K562/Adr,6550 nM
COc1cc(C#N)cc(-c2ccc(C(=O)c3ccccc3)c(NC(C)=O)c2)c1,IC50,"A549 [1]; Homo sapiens, A549, 72 h",1030 nM
COc1cc(C#N)cc(-c2ccc(C(=O)c3ccccc3)c(N)c2)c1 [listing 2 of 2 here],inhibition,Tubulin (Homo sapiens) [11],Active
same,inhibition,Tubulin (Homo sapiens) [9],75%
same,Activity,KB/VCR,Active
COc1cc(OC)c(-c2ccc(C(=O)c3ccccc3)cc2)cc1OC,IC50,"A549 [1]; Homo sapiens, A549, 72 h",> 10000 nM
COc1cccc(-c2ccc(C(=O)c3ccccc3)cc2)c1,IC50,"A549 [1]; Homo sapiens, A549, 72 h",932 nM
COc1cc(C#N)cc(-c2ccc(C(=O)c3ccc(O)cc3)cc2)c1,IC50,"A549 [1]; Homo sapiens, A549, 72 h",> 10000 nM
COc1cccc2c1C(=O)c1c(O)c3c(c(O)c1C2=O)C[C@@](O)(C(=O)CO)C[C@@H]3O[C@H]1C[C@H](N)[C@H](O)[C@H](C)O1.Cl [DOXORUBICIN HYDROCHLORIDE],Ratio IC50,[2],287.7
same,IC50,K562,108 nM
same,IC50,K562/Adr,31200 nM
COc1cc(OC)c(-c2ccc(C(=O)c3ccccc3)cc2)c(OC)c1,IC50,"A549 [1]; Homo sapiens, A549, 72 h",> 10000 nM
O=C(c1ccccc1)c1ccc(-c2ccccc2)cc1,IC50,"A549 [1]; Homo sapiens, A549, 72 h",> 10000 nM
CC[C@]1(O)C[C@H]2CN(CCc3c([nH]c4ccccc34)[C@@](C(=O)OC)(c3cc4c(cc3OC)N(C=O)[C@H]3[C@@](O)(C(=O)OC)[C@H](OC(C)=O)[C@]5(CC)C=CCN6CC[C@]43[C@@H]65)C2)C1 [VINCRISTINE],Ratio IC50,[3],301
same,IC50,KB,6.7 nM
same,Ratio IC50,[4],1282.2
same,IC50,[8],2010 nM
same,IC50,KB-V1,8570 nM
COc1cc(C#N)cc(-c2ccc(C(=O)c3cccc(O)c3)cc2)c1,IC50,"A549 [1]; Homo sapiens, A549, 72 h",78 nM
COc1cc(C#N)cc(-c2ccc(C(=O)c3ccc(Cl)cc3)cc2)c1,IC50,"A549 [1]; Homo sapiens, A549, 72 h",1070 nM
COc1ccc(-c2ccc(C(=O)c3ccccc3)cc2)cc1,IC50,"A549 [1]; Homo sapiens, A549, 72 h",> 10000 nM
COc1cc(C#N)cc(-c2ccc(Cc3ccccc3)cc2)c1,IC50,"A549 [1]; Homo sapiens, A549, 72 h",> 10000 nM
COc1cc(C#N)cc(-c2ccc(C(O)c3ccccc3)cc2)c1 (stereo unspecified),IC50,"A549 [1]; Homo sapiens, A549, 72 h",770 nM
CCOc1cccc(-c2ccc(C(=O)c3ccccc3)cc2)c1,IC50,"A549 [1]; Homo sapiens, A549, 72 h",1580 nM
COc1cc(C#N)cc(-c2cc(OC)c(C(=O)c3ccccc3)cc2OC)c1,IC50,"A549 [1]; Homo sapiens, A549, 72 h",> 10000 nM
COc1cc(OC)cc(-c2ccc(C(=O)c3ccccc3)cc2)c1,Activity,A549 [12],Active
same,Ratio IC50,[3],0.8
same,IC50,KB,52.7 nM
same,inhibition,Tubulin (Homo sapiens) [13],Active
same,Ratio IC50,[4],1
same,Activity,A549 [14],Active
same,IC50,"A549 [1]; Homo sapiens, A549, 72 h",94 nM
same,IC50,K562,137 nM
same,IC50,[8],42.5 nM
same,inhibition,Tubulin (Homo sapiens) [15],Active
same,inhibition,Tubulin (Homo sapiens) [9],23.9%
same,IC50,KB-V1,51.7 nM
same,IC50,K562/Adr,305 nM
CC(=O)O[C@H]1C(=O)[C@@]2(C)[C@H]([C@H](OC(=O)c3ccccc3)[C@]3(O)C[C@H](OC(=O)[C@H](O)[C@@H](NC(=O)c4ccccc4)c4ccccc4)C(C)=C1C3(C)C)[C@]1(OC(C)=O)CO[C@@H]1C[C@@H]2O [PACLITAXEL],T/C,4T1 [16],49.2%
COc1cc(C#N)cc(-c2ccc(C(=O)c3ccccc3Cl)cc2)c1,IC50,"A549 [1]; Homo sapiens, A549, 72 h",306 nM
Nc1c(F)cc(Cl)cc1-c1ccc(C(=O)c2ccccc2)cc1,IC50,"A549 [1]; Homo sapiens, A549, 72 h",> 10000 nM
COc1cc(C#N)cc(-c2ccc(C(=O)c3ccco3)cc2)c1,IC50,"A549 [1]; Homo sapiens, A549, 72 h",> 10000 nM
COc1cc(C#N)cc(-c2ccc(C(=O)c3cccc(Cl)c3)cc2)c1,IC50,"A549 [1]; Homo sapiens, A549, 72 h",121 nM
O=C(c1ccccc1)c1ccc(-c2cccc(C(F)(F)F)c2)cc1,IC50,"A549 [1]; Homo sapiens, A549, 72 h",6540 nM
N#Cc1cccc(-c2ccc(C(=O)c3ccccc3)cc2)c1,IC50,"A549 [1]; Homo sapiens, A549, 72 h",787 nM
COc1cc(C#N)cc(-c2ccc(C(=O)c3ccccn3)cc2)c1,IC50,"A549 [1]; Homo sapiens, A549, 72 h",1640 nM
COc1cc(C#N)cc(-c2ccc(C(=O)c3ccnc(OC)c3)cc2)c1,IC50,"A549 [1]; Homo sapiens, A549, 72 h",322 nM
COc1cc(C#N)cc(-c2ccc(C(=O)c3ccccc3)c(O)c2)c1,IC50,"A549 [1]; Homo sapiens, A549, 72 h",114 nM
COc1cc(OC)cc(C(=O)c2ccc(-c3cc(C#N)cc(OC)c3)cc2)c1,IC50,"A549 [1]; Homo sapiens, A549, 72 h",72 nM
O=C(c1ccccc1)c1ccc(-c2cc(C(F)(F)F)cc(C(F)(F)F)c2)cc1,IC50,"A549 [1]; Homo sapiens, A549, 72 h",> 10000 nM
COc1cc(C#N)cc(-c2ccc(C(=O)c3cccs3)cc2)c1,IC50,"A549 [1]; Homo sapiens, A549, 72 h",1190 nM
COc1cc(-c2ccc(C(=O)c3ccccc3)cc2)cc(OC)c1OC,IC50,"A549 [1]; Homo sapiens, A549, 72 h",> 10000 nM
COc1ccc(C(=O)c2ccc(-c3cc(C#N)cc(OC)c3)cc2)cc1,IC50,"A549 [1]; Homo sapiens, A549, 72 h",> 10000 nM
COc1ccccc1-c1ccc(C(=O)c2ccccc2)cc1,IC50,"A549 [1]; Homo sapiens, A549, 72 h",2910 nM
COc1cccc(C(=O)c2ccc(-c3cc(OC)cc(OC)c3)cc2N)c1,IC50,"A549 [1]; Homo sapiens, A549, 72 h",17 nM

# Source: ChEMBL document CHEMBL5154650, “Identification and optimization of biphenyl derivatives as novel tubulin inhibitors targeting colchicine-binding site overcoming multidrug resistance” (Eur J Med Chem, 2022)
